Common to all, as to assay: DTP human tumour cell line panel, 48 h
Experiment [1] deals with RXF 393 renal.
The subject of experiment [2] is UACC-62 melanoma.
In experiment [3] the test system is M14 melanoma.
Experiment [4] concerns KM12 colon.
In experiment [5] the test system is SK-MEL-2 melanoma.
Experiment [6] has as its system OVCAR-4 ovarian.
The subject of experiment [7] is SW-620 colon.
The test system of experiment [8] is HCC-2998 colon.
In experiment [9] the test system is NCI-H460 lung.
In experiment [10] the test system is A498 renal.

We go through 13 molecules from PubChem BioAssay (NCI).

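Following 48 hours of exposure in 96-well plates, responses at five concentrations were used to interpolate endpoints linearly. GI50 is the concentration that inhibits growth by half. TGI denotes the concentration required for complete inhibition of growth.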 Where only a bound is given, the exact number is not on record here.

As to `CCOC(=O)NC(=O)c1cn(-c2ccc(CCOC(=O)CCCCCCCCC(=O)OCCc3ccc(-n4cc(C(=O)NC(=O)OCC)c(=O)[nH]c4=O)cc3)cc2)c(=O)[nH]c1=O`, the TGI in experiment [1], in experiment [2], in experiment [3], in [4], in experiment [5] and in experiment [6] was greater than 100 µM in each case. Moreover, the TGI in experiment [7], in experiment [8] and in [9] was greater than 100 µM each time.
With `CN(C)CC1CCC(CN(C)C)C1=NO` (configuration not stated), the TGI in experiment [1], in experiment [2], in [3], in [6], in experiment [7] and in experiment [8] was greater than 100 µM throughout. In [9], the TGI was greater than 10 µM.
In the case of `CCCN(CCC)c1ccc(C=O)c(OC)c1`, the GI50 in [1] is 26.9 µM; in [2] it was 16.3 µM; in [4], 23.7 µM; in experiment [10], 1.37 µM; in [6], 19.4 µM; in experiment [7], 22.9 µM. Also, the GI50 is 24.9 µM in experiment [8] and 24 µM in [9]. Also, the concentration for total growth inhibition (TGI) in experiment [1] is greater than 100 µM; in experiment [2], 55.4 µM; in [4], 83.8 µM; in experiment [10] it was 7.79 µM; in [6], 91.7 µM; in experiment [7] it was greater than 100 µM. Moreover, the TGI in experiment [8] and in experiment [9] was greater than 100 µM in each case.
As to `Cn1c(-c2c(N)n(Cc3ccc(Cl)cc3)c3nc(C#N)c(C#N)nc23)nc2ccccc21`, the GI50 in experiment [1] is 0.567 µM; in experiment [2], 2.26 µM; in experiment [3], 10.6 µM; in [4], 2.76 µM; in experiment [5] it was greater than 50 µM; in experiment [6] it was 3.89 µM. The GI50 in experiment [7] is 5.26 µM; in [8], 1.08 µM; in experiment [9], 2.7 µM. Further, the TGI in experiment [1] was 4.67 µM; in experiment [2] it was 9.71 µM; in experiment [3], 42.6 µM; in [4], 32.2 µM; in [5], greater than 50 µM; in [6], 18.6 µM. In addition, the TGI is greater than 50 µM in experiment [7], 3.57 µM in experiment [8] and 25.7 µM in experiment [9].
For the molecule `COc1ncnc2c1ncn2C/C(Br)=C(\Br)CCl`, the GI50 in experiment [1] was 1.64 µM; in [2] it was 2.65 µM; in [3], 1.82 µM; in [4], 3.54 µM; in experiment [6], 1.61 µM; in [8] it was 17.2 µM. Besides, the TGI came to 3.06 µM in experiment [1]; 12 µM in [2]; 4.14 µM in [3]; 13.4 µM in experiment [4]; 3.02 µM in experiment [6]; 31.2 µM in [8].
For the molecule `CN1C(=O)NC2(O)c3ccccc3C(=O)C12O` (configuration not stated), the TGI in experiment [2], in [3], in [4], in experiment [5], in [6] and in experiment [7] was greater than 100 µM throughout. For the same molecule, the TGI in experiment [9] is greater than 100 µM.
Turning to `CC1=C(CC/C(C)=C/CCC2(C)CCC([C@H](C)C(=O)O)OO2)C(C)(C)CCC1` (some centres not stated) (tested in a mixture with another compound), the TGI in experiment [1], in experiment [3], in experiment [4], in experiment [5], in [6] and in experiment [7] was greater than 100 µM in each case. The TGI in experiment [8] and in experiment [9] was greater than 100 µM in each case.
In the case of `CP(=O)(CCSc1ccccc1)c1ccccc1` (configuration not stated), the TGI in [1], in [2], in [3], in [10], in experiment [6] and in [7] was greater than 100 µM throughout. Besides, the TGI in experiment [8] and in experiment [9] was greater than 100 µM in each case.
As for `CCCCn1c(=O)c(/C=C/C(=O)/C=C/c2ccc(O)c(OC)c2)cc2ccc(Cl)cc21`, the GI50 was 1.66 µM in experiment [1]; 1.48 µM in [2]; 1.86 µM in [3]; 1.89 µM in experiment [4]; 2.67 µM in experiment [5]; 2.34 µM in experiment [6]. Besides, the results for the GI50 in [7], in [8] and in [9] were 2.05 µM, 2.05 µM and 1.96 µM, respectively. In addition, the TGI in experiment [1] amounted to 3.25 µM; in experiment [2] it was 3.24 µM; in [3], 4.17 µM; in experiment [4], 3.66 µM; in experiment [5], 6.32 µM; in experiment [6], 9.81 µM. Moreover, the TGI in experiment [7] came to 4.37 µM; in experiment [8], 3.54 µM; in experiment [9], 4.17 µM.
Consider `S=C1SC2(CCCCCC2)NC2=C1CCCCC2`, for which the TGI was greater than 100 µM in experiment [1]; greater than 100 µM in [2]; greater than 100 µM in experiment [3]; greater than 100 µM in [4]; 47.4 µM in experiment [5]; greater than 100 µM in [6]. Moreover, the TGI in experiment [7] is greater than 100 µM; in experiment [8] it was greater than 100 µM; in [9] it was 77.9 µM.
On to `CCCC(=O)C(CC)/C(CCC(=O)N(Cc1ccccc1)Cc1ccccc1)=N/NC(=O)C[N+](C)(C)C` (configuration not stated), for which the TGI in experiment [1], in experiment [3], in experiment [4], in experiment [10], in experiment [5] and in experiment [6] was greater than 100 µM in each case. Moreover, the TGI in experiment [7] and in experiment [9] was greater than 100 µM each time.
In the case of `COC(=O)c1c(C(=O)OC)c(C(=O)OC)c(C(=O)OC)c1C(=O)OC`, the TGI in experiment [1], in experiment [2], in [3], in experiment [4], in experiment [5] and in experiment [6] was greater than 100 µM each time. For the same molecule, the TGI in experiment [7], in [8] and in experiment [9] was greater than 100 µM each time.
Turning to `CN1NC(c2ccccc2)=C(C#N)C(=O)CC1c1ccccc1Cl` (configuration not stated), the TGI in experiment [1], in experiment [3], in experiment [4], in [5], in experiment [6] and in experiment [7] was greater than 100 µM each time. The TGI in experiment [8] and in [9] was greater than 100 µM throughout.
